The source of these data is paper PMC12541587 (Acta Pharmaceutica Sinica. B, 2025).

“And” between values parts separate entries of the source, which are not always exact repeats. Equal entries are not always repeated. Where two headings read alike, the source gives them in different places.

Series [1] deals with σ1R (Rattus norvegicus, UniProt Q9R0C9). The series is described as follows: biochemical. Format: binding. The conditions noted are these: for inhibition at 10 µM: read-out: σ1R Inhibition; for inhibition at 1 µM: read-out: σ1R inhibitory rate at 1 μmol/L.
For series [2], the target named is T1, σ2R (Rattus norvegicus, UniProt Q5U3Y7).
T1 sequence (Q5U3Y7 1-176): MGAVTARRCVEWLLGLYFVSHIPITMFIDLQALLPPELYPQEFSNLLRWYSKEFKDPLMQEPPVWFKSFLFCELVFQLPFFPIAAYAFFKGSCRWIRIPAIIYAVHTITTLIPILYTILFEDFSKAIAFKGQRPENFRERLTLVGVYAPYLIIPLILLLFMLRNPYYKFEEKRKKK
The series is described as follows: σ2R radioligand binding assay.

The subject of series [3] is σ1R. It is filed as binding, rat. Conditions: Ki without DPH / Ki with DPH 250 μmol/L.
In series [4] the target is T2, CYP1A2 (Homo sapiens, UniProt P05177).
T2 sequence (P05177 1-516): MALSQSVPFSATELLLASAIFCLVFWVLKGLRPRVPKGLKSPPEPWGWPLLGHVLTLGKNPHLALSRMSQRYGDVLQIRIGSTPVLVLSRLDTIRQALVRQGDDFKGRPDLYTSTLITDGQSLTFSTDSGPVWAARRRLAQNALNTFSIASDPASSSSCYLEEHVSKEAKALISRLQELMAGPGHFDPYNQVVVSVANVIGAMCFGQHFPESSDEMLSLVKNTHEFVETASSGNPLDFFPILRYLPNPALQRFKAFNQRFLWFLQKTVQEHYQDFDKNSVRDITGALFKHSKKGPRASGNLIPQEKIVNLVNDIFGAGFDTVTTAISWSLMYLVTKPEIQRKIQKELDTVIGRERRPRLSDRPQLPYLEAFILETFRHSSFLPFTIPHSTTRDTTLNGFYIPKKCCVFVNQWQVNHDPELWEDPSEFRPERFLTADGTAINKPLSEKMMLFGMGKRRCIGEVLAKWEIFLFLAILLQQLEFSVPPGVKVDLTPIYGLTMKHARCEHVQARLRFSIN
Nature of the series: in vitro.

In series [5] the target is CYP2C19 (Homo sapiens, UniProt P33261). Nature of the series: CYP450 inhibition: CYP2C19. Conditions: probe S-mephenytoin (35 μmol/L).
Series [6] has as its target σ1R-LgBiT and BiP-SmBiT (Homo sapiens, UniProt Q99720). Nature of the series: NanoBiT σ1R-BiP heterodimerization assay. Format: cell-based. The conditions noted are these: 10 μmol/L.
Series [7] relates to D2/D3 receptor. The conditions noted are these: healthy volunteers and Huntington disease patients; cited from earlier work.
Series [8] deals with σ1R. The conditions noted are these: healthy volunteers and Huntington disease patients; cited from earlier work.
For series [9], the target named is dopamine D3. The conditions noted are these: read-out: dopamine D3 Ki; cited from earlier work.
For series [10], the target named is σ1R. Conditions: read-out: σ1R Ki (clinical σ1R agonists); cited from earlier work.
Series [11] concerns catalepsy. Nature of the series: Catalepsy bar test. Format: in vivo, mice.

Chain of σ1R (Rattus norvegicus, UniProt Q9R0C9) (Q9R0C9 whole entry): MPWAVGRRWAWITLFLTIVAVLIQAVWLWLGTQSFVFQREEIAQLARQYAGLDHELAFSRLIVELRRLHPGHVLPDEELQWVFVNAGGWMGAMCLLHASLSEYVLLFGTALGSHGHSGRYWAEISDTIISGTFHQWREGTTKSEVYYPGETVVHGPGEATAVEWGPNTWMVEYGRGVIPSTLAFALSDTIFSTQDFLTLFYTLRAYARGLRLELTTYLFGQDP
Chain of σ1R-LgBiT and BiP-SmBiT (Q99720 whole entry): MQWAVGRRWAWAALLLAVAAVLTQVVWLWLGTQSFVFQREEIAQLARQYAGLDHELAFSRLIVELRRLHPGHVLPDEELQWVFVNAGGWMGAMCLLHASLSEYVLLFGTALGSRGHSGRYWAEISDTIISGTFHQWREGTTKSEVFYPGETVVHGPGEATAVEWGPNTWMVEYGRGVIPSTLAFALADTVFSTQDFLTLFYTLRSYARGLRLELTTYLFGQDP
Chain of CYP2C19 (P33261 whole entry): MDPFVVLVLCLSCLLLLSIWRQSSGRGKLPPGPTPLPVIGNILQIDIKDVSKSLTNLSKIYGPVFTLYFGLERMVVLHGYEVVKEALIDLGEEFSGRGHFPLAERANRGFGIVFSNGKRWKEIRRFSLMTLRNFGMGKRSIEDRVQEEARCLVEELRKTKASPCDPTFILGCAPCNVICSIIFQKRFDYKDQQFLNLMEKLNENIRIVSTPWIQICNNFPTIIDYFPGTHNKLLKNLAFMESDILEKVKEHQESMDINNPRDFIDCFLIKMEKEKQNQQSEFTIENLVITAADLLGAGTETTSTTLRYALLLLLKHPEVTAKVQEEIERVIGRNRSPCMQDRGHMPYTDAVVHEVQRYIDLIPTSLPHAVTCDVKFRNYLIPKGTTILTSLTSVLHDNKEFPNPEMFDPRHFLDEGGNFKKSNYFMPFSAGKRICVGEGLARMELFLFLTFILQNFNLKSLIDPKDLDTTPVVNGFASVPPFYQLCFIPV

Broadly, the Ki is the dissociation constant of the complex between target and ligand, obtained from inhibition or displacement. In the case of `COc1ccc(/C(C)=N/OCCCN2CCCCC2)cc1` [15l], in series [1], the Ki was 39.4 ± 3.4 nM and the inhibition at 10 µM was determined as 93.2%.

In the case of `FC(F)(F)c1ccc2c(c1)OCC/C2=N\OCCCN1CCCCC1` [15o], in series [1], the affinity corresponds to a Ki of 76.2 ± 2.92 nM and the inhibition at 10 µM is 99.3%.

For `C/C(=N\OCCN1CCOCC1)c1ccccc1` [16p], in [1], the inhibition at 10 µM turned out to be 74.4% and the inhibition at 1 µM is -8.25%.

On to `COc1ccc(/C(C)=N/OCCN2CCOCC2)cc1` [16q], for which, in series [1], the inhibition at 10 µM is 93.2% and the inhibition at 1 µM turned out to be 37.8%.

On to `C/C(=N\OCCN1CCOCC1)c1ccc(Br)cc1` [16r], for which, in [1], the inhibition at 10 µM turned out to be 106% and the inhibition at 1 µM came to 55.4%.

As for `C/C(=N\OCCN1CCOCC1)c1ccc(C)cc1` [16s], the inhibition at 10 µM in series [1] is 66.2%.

The molecule `CC(C)=CCN1CC[C@]2(C)c3cc(O)ccc3C[C@H]1[C@H]2C` [(+)-Pentazocine] showed a Ki in series [2] of 673 ± 27.5 nM. Besides, the inhibition at 10 µM in [1] amounted to 99%.

In the case of `CN(C)CCN(C)CCc1ccc(Cl)c(Cl)c1` [BD1047], the inhibition constant Ki in series [1] (read-out: σ1R Ki, mean ± SEM, n = 3) was 0.87 ± 0.15 nM. The “Ratios Ki/(Ki + phenytoin)” value in series [3] stood at 0.63 ± 0.20.

Take `COCCCC/C(=N\OCCN)c1ccc(C(F)(F)F)cc1` [Fluvoxamine]: the inhibition at 10 μmol/L in series [4] worked out at 95.7%; in [5], 95%. Also, the inhibition at 10 µM in series [1] came to 81.8%.

Consider `O=C(OCCN1CCOCC1)C1(c2ccccc2)CCCCC1` [PRE084], for which the “σ1R-LgBiT/BiP-SmBiT interaction, 10 min treatment” value in series [6] was “decreased this interaction”. For the same molecule, the Ki in [1] (read-out: σ1R Ki) turned out to be 23.1 ± 3.17 nM.

With `CCCN1CCC(c2cccc(S(C)(=O)=O)c2)CC1` [Pridopidine], the “D2/D3 receptor occupancy (PET)” value in series [7] is recorded as ~3%. For the same molecule, the “σ1R occupancy (PET)” value in [8] is recorded as ~90%. Moreover, the values for the Ki in series [9] and in [10] were 1630 nM and 57 nM, respectively.

On to `C=CCN1CCC2(C)c3cc(O)ccc3CC1C2C` (stereo not shown) [SKF10047], for which the affinity in series [1] corresponds to a Ki of 292 ± 6.18 nM. In addition, in [3], the “Ratios Ki/(Ki + phenytoin)” value is 7.10 and 7.10 ± 0.74.

Turning to `Cc1nc2n(c(=O)c1CCN1CCC(c3noc4cc(F)ccc34)CC1)CCCC2` [risperidone], in series [11] (3 mg/kg risperidone, 60 min post-administration), the “mean catalepsy duration at peak response” value was 49.57 min. In addition, in series [11] (oral, 15d 10 to 45 mg/kg, risperidone 3 mg/kg), the cataleptic response result is given as “catalepsy induced by 3 mg/kg risperidone was observed”.
